Measurements: patent US9517244B2, “Therapeutic combinations for use in neoplasia” (University of Florida Research Foundation, Inc., priority 2011, dated 2016)

Key:
APE1 [1] = target: T1, APE1 (Homo sapiens, UniProt P27695); assay: fluorescence anisotropy, APE1 binding to AP-site DNA
Text: FIGS. 7A and 7B show the effect of NSC-30049 on the APE1 affinity for AP-lesion containing DNA. […] FIG. 7B is a table showing the apparent Kd values of the data. Values are the mean±SD of triplicate estimations.
The small molecule inhibitor (SMI), NSC-30049, was identified as an inhibitor of APE1 endonuclease activity by molecular docking.

[2] = tested on: HCT-116+ch3 (MMR proficient) xenograft; assay: xenograft model of colon cancer, tumor volume; type: in vivo; settings: NSC-30049 2.5 mg/kg i.p. + temozolomide 20 mg/kg i.p., day 38
Procedure: (§1) FIG. 10A is a schematic representation of the experimental protocol. […] Data are the mean±SD of four to six animals in each group.
(§2) Xenograft models of colon cancer were used to test the effect of NSC-30049 as a chemopreventive agent when administered in combination with temozolomide. At day 0, the xenograft host was administered with cells from a colon cancer cell line (HCT-116, MMR deficient; HCT-116+ch3, MMR proficient). Thereafter, temozolomide (20 mg/kg body weight; intraperitoneal) and/or NSC-30049 (2.5 mg/kg body weight; intraperitoneal) were administered to the animals. Tumor growth was evaluated at day 38.

[3] = tested on: HCT-116 (MMR deficient) xenograft; assay: xenograft model of colon cancer, tumor volume; type: in vivo; settings: NSC-30049 2.5 mg/kg i.p. + temozolomide 20 mg/kg i.p., day 38
Procedure: as §1, §2

[4] = tested on: CD133, Nanog, Oct4, Sox2 expression in GBM-L0 stem cells; assay: qRT-PCR of self-renewal genes in GBM-L0 stem cells; type: cell-based; settings: 2.5 μM NSC-30049 + 10 or 100 μM TMZ, 36 h, compared to either alone
Procedure: Cells were pretreated with 2.5 μM of NSC30049 or 10 or 100 μM TMZ alone or in combination with NSC-30049 for 36 h. Then, total RNA was isolated and processed for gRT-PCR. Data presented are the mean±SE of three different measurements. […] Treatment with NSC-30049 or TMZ reduced the expression of aldehyde dehydrogenase gene Aldh1a7 in GBM-LO stem cell line in vitro, but not treatment with NSC-30049 and TMZ. Cells were pretreated with 2.5 μM of NSC30049 or 10 or 100 μM of TMZ alone or in combination with NSC-30049 for 36 h. Then, total RNA was isolated and processed for qRT-PCR. Data presented are the mean±SE of three different measurements.
Without being bound to a particular theory, the effect of administration of NSC-30049 in combination with temozolomide (TMZ) on the expression of self-renewal marker genes of […] was analyzed. Self-renewal marker genes are highly expressed in colon cancer stem cells compared to human parental cancer cells. qRT-PCR data of CD133+, Oct4, Sox2 and Nanog gene expression levels of GBM-L0 stem cells was obtained (FIG. 14A). Cells were pretreated with 2.5 μM of NSC30049 or 10 or 100 μM of TMZ alone or in combination with NSC-30049 for 36 h. Then, total RNA was isolated and processed for qRT-PCR. Data presented are the mean±SE of three different measurements. […]

solubility in water = type: physicochemical
APE1 [5] = target: T1, APE1; assay: in vitro APE1 activity assay with purified APE1 and 32P-labeled 63-mer F-DNA; type: biochemical
Text: FIGS. 4A and 4B depict the screening of small molecules. FIG. 4A depicts an in vitro assay system to determine the effect of compounds on the blockage of APE1-activity using purified APE1 and ^32P-labeled 63-mer F-DNA. FIG. 4B is a gel depicting the effect of the small molecules on APE1 activity. […] Data are representative of duplicate experiments.
FIG. 5A depicts an in vitro assay protocol using purified APE1 protein. FIG. 5B is an image of a gel showing a dose-dependent effect of NSC-30049 on APE1 activity. […] FIG. 5C is a graph depicting the percent cleavage and the IC50 of NSC-30049 to block APE1 activity, showing that APE1 is blocked in a dose-dependent manner. Data is mean±SE of three different experiments.
To determine the effect of compounds on the blockage of APE1 activity, an in vitro assay system was developed using purified APE1 and ^32P-labeled 63-mer F-DNA (FIG. 4A). Several small molecules (NSC-9746, NSC-18468, NSC-2137, NAC-30049 and NSC-32895) were screened for their ability to inhibit APE1 activity in the in vitro assay (FIG. 4B).

Mia-PaCa2 = assay: MTT assay, pancreatic cancer cell line; type: cell-based, human; settings: Homo sapiens, MIA PaCa-2; Mia-PaCa2 (dFdC-resistant); single agent; 72 h; read-out: IC50
MiaPaCa2-Lu tumors = assay: orthotopic MiaPaCa2-Lu tumors in athymic mice, tumor luciferase expression; type: in vivo; settings: combination treatment of NSC-30049 and CDDP
Text: FIG. 8A depicts in situ imaging of orthotopic MiaPaCa2-Lu tumors growing in female athymic (nu/nu) mice.

A172 = assay: MTT assay, brain cancer cell line; type: cell-based; settings: Homo sapiens, A 172, 120 h, single agent, read-out: IC50 of NSC-30049
Procedure: (§3) The use of NSC-30049 as a chemopreventive agent for the treatment of brain cancer was also tested. NSC-30049 in combination with temozolomide was administered to brain cancer cell lines, including U118, U138, U87MG, A172, and T98 cell lines (Table 6). Cells were pretreated with the indicated concentrations of NSC-30049 followed by TMZ for 120 h. After treatment, cells were processed for the determination of viability by cell proliferation assay (MTT assay). The data from the graph was used for the determination of IC50, which is presented as the mean±SE of three different estimations. Increasing the concentration of NSC-30049 decreased the IC50 of temozolomide for all cell lines tested, regardless of whether they were MMR proficient or deficient.

U138 = assay: MTT assay, brain cancer cell line; type: cell-based; settings: 120 h, single agent, read-out: IC50 of NSC-30049
Procedure: as §3

U87MG = assay: MTT assay, brain cancer cell line; type: cell-based; settings: Homo sapiens, U-87 MG, 120 h, single agent, read-out: IC50 of NSC-30049
Procedure: as §3

T98 = assay: MTT assay, brain cancer cell line; type: cell-based; settings: Homo sapiens, T98, 120 h, single agent, read-out: IC50 of NSC-30049
Procedure: as §3

U118 = assay: MTT assay, brain cancer cell line; type: cell-based; settings: 120 h, single agent, read-out: IC50 of NSC-30049
Procedure: as §3

T1 sequence (P27695 whole entry): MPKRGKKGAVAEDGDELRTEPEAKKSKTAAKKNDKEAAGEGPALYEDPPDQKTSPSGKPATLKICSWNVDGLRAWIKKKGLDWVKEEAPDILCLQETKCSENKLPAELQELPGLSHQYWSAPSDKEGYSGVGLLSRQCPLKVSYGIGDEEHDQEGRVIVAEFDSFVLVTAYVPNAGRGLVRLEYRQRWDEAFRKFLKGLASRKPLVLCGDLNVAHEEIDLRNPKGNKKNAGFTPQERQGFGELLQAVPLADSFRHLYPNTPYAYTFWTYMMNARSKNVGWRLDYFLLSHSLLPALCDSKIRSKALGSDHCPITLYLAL

For `ClCC=CC[N+]12CN3CN(CN(C3)C1)C2` [NSC-30049, 1-(4-Chloro-2-butenyl)-1λ˜5˜,3,5,7-tetraazatricyclo[3.3.1.1˜3,7˜]decane], the “binding of APE1 with AP-site DNA” value (APE1 [1]) was “blocked the binding of APE1 with AP-site DNA in a dose-dependent manner”, the “inhibition of tumor growth (tumor volume)” value [2] was “synergistic effect on the inhibition of tumor growth” and the “inhibition of tumor growth (tumor volume)” value [3] was “synergistic effect on the inhibition of tumor growth”. The “expression of CD133, Nanog, Oct4, and Sox2” value [4] was “significantly inhibited the expression of CD133, Nanog, Oct4, and Sox2”, the solubility in water (solubility in water) was “readily soluble in water” and the “inhibition of APE1 activity in screen” value (APE1 [5]; 5, 10, 20 and 40 μM) was “inhibit APE1 activity in the in vitro assay at all concentrations tested”. The IC50 (APE1 [5]; purified APE1, read-out: IC50 to block APE1 activity) was 7.2 nM, the IC50 (Mia-PaCa2) was 5.12 ± 0.22 µM and the “inhibition of tumor growth (tumor luciferase expression)” value (MiaPaCa2-Lu tumors) was “synergistic effect on the inhibition of MiaPaCa2-Lu tumor growth”. For the same compound, the IC50 (A172) was 6.5 ± 0.3 µM, the IC50 (U138) was 2100 ± 100 nM and the IC50 (U87MG) was 5.6 ± 1 µM. The IC50 (T98) was 10.1 ± 0.3 µM and the IC50 (U118) was 2600 ± 100 nM.
